Experimental data from ChEMBL document CHEMBL6127132, “Design, Synthesis, and Biological Evaluation of Novel Diaminopyrimidine Macrocycles as Fourth Generation Reversible EGFR Inhibitors That Overcome Clinical Resistance to Osimertinib Mediated by C797S Mutation” (J Med Chem, 2024).

What was measured:
BaF3 [1] = experiment: cells; conditions: Mus musculus, BaF3, 72 h
BaF3 [2] = experiment: cells; conditions: Mus musculus, BaF3, 72 h; remark: listed apart in the source
A-431 = experiment: cells; conditions: Homo sapiens, A-431, 72 h
Description: Antiproliferative activity against human A-431 cells harboring wildtype EGFR assessed as inhibition of cell proliferation measured after 72 hrs by SRB assay

[3] = Antiproliferative activity against mouse BaF3 cells assessed as inhibition of cell proliferation incubated for 72 hrs by CCK-8 assay; format: toxicity, cell-based
cells = conditions: Homo sapiens, PC9-OR, 72 h
[4] = target: Epidermal growth factor receptor (Homo sapiens, UniProt P00533, L858R/T790M); experiment: Inhibition of recombinant N-terminal GST-tagged human EGFR T790M/L858R mutant (696 to end residues) extracted from baculovirus infect Sf21 insect cells incubated for 1 hrs by spectrophotometric analysis
Chain of Epidermal growth factor receptor (Homo sapiens, UniProt P00533, L858R/T790M) (P00533 25-1210 T790M/L858R limits assumed): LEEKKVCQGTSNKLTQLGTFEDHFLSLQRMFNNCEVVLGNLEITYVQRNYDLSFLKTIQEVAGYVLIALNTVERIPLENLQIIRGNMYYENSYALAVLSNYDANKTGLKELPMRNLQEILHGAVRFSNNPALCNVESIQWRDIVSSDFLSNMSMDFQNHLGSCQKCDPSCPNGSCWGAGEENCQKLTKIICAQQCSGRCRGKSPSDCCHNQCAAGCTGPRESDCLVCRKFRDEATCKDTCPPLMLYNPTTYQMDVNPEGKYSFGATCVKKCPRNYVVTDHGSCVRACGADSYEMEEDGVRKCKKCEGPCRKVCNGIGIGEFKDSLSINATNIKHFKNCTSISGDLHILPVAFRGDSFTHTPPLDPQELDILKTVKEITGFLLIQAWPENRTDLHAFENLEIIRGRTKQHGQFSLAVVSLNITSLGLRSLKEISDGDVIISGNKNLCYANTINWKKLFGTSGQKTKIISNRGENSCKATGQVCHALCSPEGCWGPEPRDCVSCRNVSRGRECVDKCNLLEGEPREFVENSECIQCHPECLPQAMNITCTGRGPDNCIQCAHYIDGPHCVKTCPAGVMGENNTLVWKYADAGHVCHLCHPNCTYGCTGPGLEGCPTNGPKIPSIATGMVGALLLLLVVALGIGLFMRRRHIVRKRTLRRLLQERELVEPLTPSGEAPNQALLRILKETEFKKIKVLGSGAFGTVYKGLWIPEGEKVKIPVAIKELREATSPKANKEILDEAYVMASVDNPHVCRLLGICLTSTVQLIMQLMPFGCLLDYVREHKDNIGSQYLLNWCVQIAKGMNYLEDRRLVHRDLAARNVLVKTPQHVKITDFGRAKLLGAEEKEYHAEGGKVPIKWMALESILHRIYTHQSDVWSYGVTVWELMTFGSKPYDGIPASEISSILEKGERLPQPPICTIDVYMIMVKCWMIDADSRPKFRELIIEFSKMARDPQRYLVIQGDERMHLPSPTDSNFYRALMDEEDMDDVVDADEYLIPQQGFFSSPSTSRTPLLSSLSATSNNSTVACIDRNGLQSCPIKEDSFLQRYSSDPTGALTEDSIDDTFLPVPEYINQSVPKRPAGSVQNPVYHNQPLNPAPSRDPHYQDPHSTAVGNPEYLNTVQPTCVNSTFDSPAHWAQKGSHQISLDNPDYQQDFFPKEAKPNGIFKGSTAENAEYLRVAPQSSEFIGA

[5] = target: Epidermal growth factor receptor (Homo sapiens, UniProt P00533); experiment: Inhibition of recombinant wildtype N-terminal GST-tagged human EGFR kinase domain (696 to end residues) extracted from baculovirus infect Sf21 insect cells incubated for 1 hrs by spectrophotometric analysis
Chain of Epidermal growth factor receptor (Homo sapiens, UniProt P00533) (P00533 whole entry, the tested form may be a part): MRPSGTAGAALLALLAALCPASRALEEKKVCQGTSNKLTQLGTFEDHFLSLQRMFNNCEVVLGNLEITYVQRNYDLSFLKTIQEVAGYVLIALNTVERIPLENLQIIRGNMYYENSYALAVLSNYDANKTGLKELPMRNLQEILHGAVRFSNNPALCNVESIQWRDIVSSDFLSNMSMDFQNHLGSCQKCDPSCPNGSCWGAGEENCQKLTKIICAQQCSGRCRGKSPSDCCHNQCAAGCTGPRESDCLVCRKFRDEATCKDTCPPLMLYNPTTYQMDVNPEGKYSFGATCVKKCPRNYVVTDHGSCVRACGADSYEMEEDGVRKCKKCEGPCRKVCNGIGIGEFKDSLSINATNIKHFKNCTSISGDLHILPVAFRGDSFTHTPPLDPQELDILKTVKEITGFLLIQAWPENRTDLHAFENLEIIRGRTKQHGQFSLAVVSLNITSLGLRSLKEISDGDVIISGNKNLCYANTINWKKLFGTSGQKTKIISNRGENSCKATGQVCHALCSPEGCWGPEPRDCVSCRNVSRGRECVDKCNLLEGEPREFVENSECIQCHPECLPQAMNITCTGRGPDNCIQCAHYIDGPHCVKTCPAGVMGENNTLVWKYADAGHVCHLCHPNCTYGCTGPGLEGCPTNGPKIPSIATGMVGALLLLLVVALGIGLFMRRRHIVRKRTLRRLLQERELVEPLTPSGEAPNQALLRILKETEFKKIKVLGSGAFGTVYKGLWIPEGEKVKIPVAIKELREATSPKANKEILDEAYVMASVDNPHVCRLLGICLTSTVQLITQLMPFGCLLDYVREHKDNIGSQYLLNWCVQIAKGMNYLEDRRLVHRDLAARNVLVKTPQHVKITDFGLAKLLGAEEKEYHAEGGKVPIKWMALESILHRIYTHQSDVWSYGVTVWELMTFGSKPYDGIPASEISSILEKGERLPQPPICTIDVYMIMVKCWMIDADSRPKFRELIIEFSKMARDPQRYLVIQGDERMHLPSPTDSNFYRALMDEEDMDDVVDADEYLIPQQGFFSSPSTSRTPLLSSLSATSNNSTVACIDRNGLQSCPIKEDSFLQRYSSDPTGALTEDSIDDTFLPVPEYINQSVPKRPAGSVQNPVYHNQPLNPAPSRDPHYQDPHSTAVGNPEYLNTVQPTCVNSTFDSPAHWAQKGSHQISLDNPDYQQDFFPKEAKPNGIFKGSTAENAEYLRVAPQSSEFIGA

[6] = target: Epidermal growth factor receptor (Homo sapiens, UniProt P00533, C797S/EX19DEL/T790M); experiment: Inhibition of recombinant N-terminal GST-tagged human EGFR 19del/T790M/C797S mutant (668 to end residues) extracted from Sf9 insect cells incubated for 1 hrs by spectrophotometric analysis; format: cell-free
Chain of Epidermal growth factor receptor (Homo sapiens, UniProt P00533, C797S/EX19DEL/T790M) (P00533 whole entry, looked up, stated change not applied): as the sequence (P00533 whole entry, the tested form may be a part) above

[7] = Induction of apoptosis in mouse BaF3 cells harboring EGFR 19del/T790M/C797S mutant assessed as late apoptotic cells at 1000 nM incubated for 48 hrs by Annexin V-FITC/PI staining based flow cytometric analysis (reference value: 1.47 %); format: functional
[8] = Induction of apoptosis in mouse BaF3 cells harboring EGFR 19del/T790M/C797S mutant assessed as late apoptotic cells at 30 nM incubated for 48 hrs by Annexin V-FITC/PI staining based flow cytometric analysis (reference value: 1.47 %); format: functional
[9] = Induction of apoptosis in mouse BaF3 cells harboring EGFR 19del/T790M/C797S mutant assessed as early apoptotic cells at 300 nM incubated for 48 hrs by Annexin V-FITC/PI staining based flow cytometric analysis (reference value: 0.36 %); format: functional
[10] = Induction of apoptosis in mouse BaF3 cells harboring EGFR 19del/T790M/C797S mutant assessed as late apoptotic cells at 300 nM incubated for 48 hrs by Annexin V-FITC/PI staining based flow cytometric analysis (reference value: 1.47 %); format: functional
[11] = Induction of apoptosis in mouse BaF3 cells harboring EGFR 19del/T790M/C797S mutant assessed as early apoptotic cells at 1000 nM incubated for 48 hrs by Annexin V-FITC/PI staining based flow cytometric analysis (reference value: 0.36 %); format: functional
[12] = Induction of apoptosis in mouse BaF3 cells harboring EGFR 19del/T790M/C797S mutant assessed as early apoptotic cells at 30 nM incubated for 48 hrs by Annexin V-FITC/PI staining based flow cytometric analysis (reference value: 0.36 %); format: functional
[13] = Induction of apoptosis in mouse BaF3 cells harboring EGFR 19del/T790M/C797S mutant assessed as early apoptotic cells at 100 nM incubated for 48 hrs by Annexin V-FITC/PI staining based flow cytometric analysis (reference value: 0.36 %); format: functional
BaF3 [14] = experiment: Antitumor activity against mouse BaF3 cells harboring 19del/T790M/C797S mutant implanted in female BALB/c nu/nu mouse assessed as tumor growth inhibition at 20 mg/kg, po administered once daily for 9 days relative to control; format: functional; conditions: BaF3, 216 h, time 9 day, read-out: TGI
[15] = Induction of apoptosis in mouse BaF3 cells harboring EGFR 19del/T790M/C797S mutant assessed as late apoptotic cells at 100 nM incubated for 48 hrs by Annexin V-FITC/PI staining based flow cytometric analysis (reference value: 1.47 %); format: functional
[16] = Induction of apoptosis in mouse BaF3 cells harboring EGFR 19del/T790M/C797S mutant assessed as early apoptotic cells at 300 nM incubated for 48 hrs by Annexin V-FITC/PI staining based flow cytometric analysis (reference value: 2.48 %); format: functional
[17] = Induction of apoptosis in mouse BaF3 cells harboring EGFR 19del/T790M/C797S mutant assessed as early apoptotic cells at 30 nM incubated for 48 hrs by Annexin V-FITC/PI staining based flow cytometric analysis (reference value: 2.48 %); format: functional
[18] = Induction of apoptosis in mouse BaF3 cells harboring EGFR 19del/T790M/C797S mutant assessed as early apoptotic cells at 100 nM incubated for 48 hrs by Annexin V-FITC/PI staining based flow cytometric analysis (reference value: 2.48 %); format: functional
[19] = Induction of apoptosis in mouse BaF3 cells harboring EGFR 19del/T790M/C797S mutant assessed as late apoptotic cells at 30 nM incubated for 48 hrs by Annexin V-FITC/PI staining based flow cytometric analysis (reference value: 1.75 %); format: functional
[20] = Induction of apoptosis in mouse BaF3 cells harboring EGFR 19del/T790M/C797S mutant assessed as late apoptotic cells at 1000 nM incubated for 48 hrs by Annexin V-FITC/PI staining based flow cytometric analysis (reference value: 1.75 %); format: functional
[21] = Induction of apoptosis in mouse BaF3 cells harboring EGFR 19del/T790M/C797S mutant assessed as late apoptotic cells at 100 nM incubated for 48 hrs by Annexin V-FITC/PI staining based flow cytometric analysis (reference value: 1.75 %); format: functional
[22] = Induction of apoptosis in mouse BaF3 cells harboring EGFR 19del/T790M/C797S mutant assessed as early apoptotic cells at 1000 nM incubated for 48 hrs by Annexin V-FITC/PI staining based flow cytometric analysis (reference value: 2.48 %); format: functional
[23] = Induction of apoptosis in mouse BaF3 cells harboring EGFR 19del/T790M/C797S mutant assessed as late apoptotic cells at 300 nM incubated for 48 hrs by Annexin V-FITC/PI staining based flow cytometric analysis (reference value: 1.75 %); format: functional
[24] = target: Epidermal growth factor receptor (Homo sapiens, UniProt P00533, C797S/L858R/T790M); experiment: Inhibition of recombinant C-terminal His-tagged/N-terminal GST-tagged human EGFR T790M/C797S/L858R mutant (668 to 1210 residues) extracted from baculovirus infected Sf9 insect cells incubated for 1 hrs by spectrophotometric analysis
Chain of Epidermal growth factor receptor (Homo sapiens, UniProt P00533, C797S/L858R/T790M) (P00533 25-1210 T790M/C797S/L858R limits assumed): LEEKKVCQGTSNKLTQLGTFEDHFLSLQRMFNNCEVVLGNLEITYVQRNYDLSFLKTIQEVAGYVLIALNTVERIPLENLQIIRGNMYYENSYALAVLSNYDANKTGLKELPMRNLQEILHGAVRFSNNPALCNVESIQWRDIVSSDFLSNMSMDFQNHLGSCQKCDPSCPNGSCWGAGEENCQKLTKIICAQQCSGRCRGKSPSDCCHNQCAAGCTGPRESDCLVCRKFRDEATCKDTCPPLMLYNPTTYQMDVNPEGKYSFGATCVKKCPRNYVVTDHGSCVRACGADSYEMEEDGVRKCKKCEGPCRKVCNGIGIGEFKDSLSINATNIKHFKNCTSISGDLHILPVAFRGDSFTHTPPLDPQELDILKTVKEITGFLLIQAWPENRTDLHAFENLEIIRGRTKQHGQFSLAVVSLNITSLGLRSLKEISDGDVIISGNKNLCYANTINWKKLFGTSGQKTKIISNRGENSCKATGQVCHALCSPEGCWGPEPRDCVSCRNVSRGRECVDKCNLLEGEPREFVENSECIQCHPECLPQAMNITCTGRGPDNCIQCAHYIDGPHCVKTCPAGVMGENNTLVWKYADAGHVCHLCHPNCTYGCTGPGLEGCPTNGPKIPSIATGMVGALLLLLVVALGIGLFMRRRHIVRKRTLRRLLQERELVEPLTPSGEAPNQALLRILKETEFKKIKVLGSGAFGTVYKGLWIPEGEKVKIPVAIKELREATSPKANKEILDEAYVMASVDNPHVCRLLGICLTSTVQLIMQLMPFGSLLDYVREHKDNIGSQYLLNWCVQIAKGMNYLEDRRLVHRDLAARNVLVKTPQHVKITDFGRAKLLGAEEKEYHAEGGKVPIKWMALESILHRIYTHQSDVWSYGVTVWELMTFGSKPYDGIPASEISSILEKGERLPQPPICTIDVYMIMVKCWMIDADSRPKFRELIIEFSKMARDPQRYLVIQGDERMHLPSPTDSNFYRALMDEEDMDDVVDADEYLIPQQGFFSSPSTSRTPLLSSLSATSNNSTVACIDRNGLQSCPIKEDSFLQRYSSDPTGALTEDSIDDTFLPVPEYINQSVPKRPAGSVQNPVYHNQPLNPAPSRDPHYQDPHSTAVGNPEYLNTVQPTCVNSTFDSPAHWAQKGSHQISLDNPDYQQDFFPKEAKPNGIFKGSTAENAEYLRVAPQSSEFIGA

| SMILES | IC50 (BaF3 [1]) [nM] | IC50 (BaF3 [2]) [nM] | IC50 (A-431) [nM] | IC50 (cells) [nM] | IC50 at 72 h [3] [nM] | IC50 [4] [nM] | IC50 [5] [nM] | IC50 [6] [nM] | also measured |
| --- | --- | --- | --- | --- | --- | --- | --- | --- | --- |
| COc1cc(N(C)CCN(C)C)c2cc1Nc1ncc(C)c(n1)Nc1ccc(cc1P(C)(C)=O)OCCCCC(=O)N2 | > 10000 | > 10000 | 4370 | 2330 | > 10000 | – | – | – | – |
| COc1cc(N(C)CCN(C)C)c2cc1Nc1ncc(C)c(n1)Nc1ccc(cc1P(C)(C)=O)OCCCCCC2 | 2090 | 1730 | > 10000 | 1000 | > 10000 | – | – | – | – |
| COc1cc(N(C)CCN(C)C)c2cc1Nc1nccc(n1)-c1cn(c3cc(P(C)(C)=O)ccc13)CCCCC(=O)N2 | – | – | – | – | – | > 1000 | > 1000 | > 1000 | – |
| COc1cc(N(C)CCN(C)C)c2cc1Nc1nccc(n1)-c1cnn(c1)CCCCC(=O)N2 | – | – | – | – | – | > 1000 | > 1000 | > 1000 | – |
| COc1cc(N(C)CCN(C)C)c2cc1Nc1ncc(C(=O)OC(C)C)c(n1)Nc1ccc(cc1P(C)(C)=O)OCCCCC(=O)N2 | – | – | – | – | – | > 1000 | > 1000 | > 1000 | IC50 [24]: > 1000 nM |
| COc1cc(N(C)CCN(C)C)c2cc1Nc1nccc(n1)-c1cc(C#N)n(c1)CCCCC(=O)N2 | – | – | – | – | – | > 1000 | > 1000 | > 1000 | – |
| C=CC(=O)Nc1cc(Nc2nccc(-c3cn(C)c4ccccc34)n2)c(OC)cc1N(C)CCN(C)C [OSIMERTINIB] | 1760 | 1550 | […] | 2600 | – | – | – | – | – |

Now from value to compound, other results behind:

| IC50 (BaF3 [1]) [nM] | IC50 (BaF3 [2]) [nM] | IC50 (A-431) [nM] | IC50 (cells) [nM] | SMILES | IC50 at 72 h [3] [nM] | IC50 [4] [nM] | IC50 [5] [nM] | IC50 [6] [nM] | also measured |
| --- | --- | --- | --- | --- | --- | --- | --- | --- | --- |
| 176 | 100 | 302 | 94 | COc1cc(N2CCC(N3CCN(C)CC3)CC2)c(C)cc1Nc1ncc(Br)c(Nc2ccc3nccnc3c2P(C)(C)=O)n1 | 2040 | – | – | – | Activity [7]: 22.63%; Activity [8]: 1.98%; Activity [9]: 50.63%; Activity [10]: 18.4%; Activity [11]: 64.67%; Activity [12]: 2.39%; Activity [13]: 6.67%; inhibition in vivo at 20 mg/kg (BaF3 [14]): 78.4%; Activity [15]: 3.84% |
| 392 | 382 | 436 | 314 | COc1cc(N2CCC(N3CCN(C)CC3)CC2)ccc1Nc1ncc(Cl)c(Nc2ccccc2P(C)(C)=O)n1 [BRIGATINIB] | 2380 | – | – | – | Activity [16]: 4.25%; Activity [17]: 2.4%; Activity [18]: 3.51%; Activity [19]: 1.21%; Activity [20]: 6.87%; Activity [21]: 1.3%; Activity [22]: 32.44%; Activity [23]: 1.86% |
| 394 | 174 | > 10000 | 104 | COc1cc(N(C)CCN(C)C)c2cc1Nc1ncc(C)c(n1)Nc1ccc(cc1P(C)(C)=O)OCCCn1cc-2cn1 | > 10000 | – | – | – | – |
| 146 | < 16 | 161 | 62 | COc1cc(N2CCN(C)CC2)c2cc1Nc1ncc(C)c(n1)Nc1ccc(cc1P(C)(C)=O)OCCCn1cc-2cn1 | 2250 | – | – | – | – |
| 313 | 41 | 158 | 38 | COc1cc(N2CCC(N3CCN(C)CC3)CC2)c2cc1Nc1ncc(C)c(n1)Nc1ccc(cc1P(C)(C)=O)OCCCn1cc-2cn1 | 2770 | – | – | – | – |
